These results are taken from patent publication US7511041B2, “Fused azole-pyrimidine derivatives” (Bayer Pharmaceuticals Corporation, priority 2002, dated 2009).

Each structure is given as a SMILES string.

The target in data set [1] is T1, Recombinant human PI3Kγ (full length human PI3K p110γ) (Homo sapiens, UniProt P48736).
T1 construct: full length human PI3K p110γ fused with a His6-tag at the C-terminus; His6 (C); purchased ALEXIS BIOCHEMICALS #201-055-C010; host or cells: S. frugiperda 9 insect cells
In words: Kinase assay of PI3Kγ (solid-phase lipid kinase assay). The class given is biochemical. Particulars: in vitro PI3K-γ inhibitory activity, class symbols A-D; read-out: in vitro PI3K-gamma.

T1 sequence (P48736 whole entry, the tested form may be a part): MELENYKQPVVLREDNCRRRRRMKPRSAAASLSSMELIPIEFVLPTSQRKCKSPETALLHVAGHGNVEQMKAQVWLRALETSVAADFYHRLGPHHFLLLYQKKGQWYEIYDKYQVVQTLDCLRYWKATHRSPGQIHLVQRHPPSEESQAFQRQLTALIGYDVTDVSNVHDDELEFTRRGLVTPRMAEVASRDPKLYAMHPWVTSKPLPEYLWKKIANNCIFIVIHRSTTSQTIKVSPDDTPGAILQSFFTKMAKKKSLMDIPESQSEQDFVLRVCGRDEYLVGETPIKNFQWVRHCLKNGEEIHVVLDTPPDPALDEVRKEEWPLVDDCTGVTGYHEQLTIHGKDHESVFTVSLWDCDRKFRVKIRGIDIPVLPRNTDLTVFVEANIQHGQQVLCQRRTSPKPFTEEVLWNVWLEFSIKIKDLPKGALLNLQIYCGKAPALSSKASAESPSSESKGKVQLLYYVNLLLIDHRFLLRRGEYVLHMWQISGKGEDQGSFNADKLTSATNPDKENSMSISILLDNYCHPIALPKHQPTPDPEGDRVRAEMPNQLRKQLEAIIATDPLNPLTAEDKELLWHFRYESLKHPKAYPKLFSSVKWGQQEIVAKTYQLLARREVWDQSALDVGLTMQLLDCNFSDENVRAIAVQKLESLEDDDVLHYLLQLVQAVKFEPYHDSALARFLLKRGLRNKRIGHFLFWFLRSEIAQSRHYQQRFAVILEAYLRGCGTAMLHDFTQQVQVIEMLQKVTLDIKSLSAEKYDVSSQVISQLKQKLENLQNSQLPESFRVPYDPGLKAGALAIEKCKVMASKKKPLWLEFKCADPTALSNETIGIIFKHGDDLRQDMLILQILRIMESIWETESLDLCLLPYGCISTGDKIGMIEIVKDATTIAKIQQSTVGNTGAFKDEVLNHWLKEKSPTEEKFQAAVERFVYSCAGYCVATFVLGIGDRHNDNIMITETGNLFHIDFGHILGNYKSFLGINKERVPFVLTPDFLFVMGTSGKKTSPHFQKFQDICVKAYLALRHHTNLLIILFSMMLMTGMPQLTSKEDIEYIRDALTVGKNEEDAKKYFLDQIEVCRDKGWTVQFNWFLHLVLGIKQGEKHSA

For orientation: melting point means the temperature, or range, at which the solid turns liquid. `CN(C)c1ccc(C(=O)NC2=Nc3ccccc3C3=NCCN23)cc1.O=C(O)C(F)(F)F` [Example 2-260]: the melting point was 240 °C (dec.). The IC50 in data set [1] is greater than 2000 nM.

Compound `CN1CCN(c2ccc(C(=O)NC3=Nc4ccccc4C4=NCCN34)cc2)CC1` [Example 2-261] registered a melting point of 218 to 222 °C. Further, the IC50 in data set [1] is greater than 2000 nM.

For `CC(=O)Nc1cccc(C(=O)NC2=Nc3ccccc3C3=NCCN23)c1.O=C(O)C(F)(F)F` [Example 2-262], the melting point is 253 °C (dec.). Moreover, the IC50 in data set [1] was greater than 2000 nM.

The compound `CN(C=O)c1ccc(C(=O)NC2=Nc3ccccc3C3=NCCN23)cc1` [Example 2-263] showed a melting point of 208 to 210 °C. Moreover, the IC50 in data set [1] is greater than 2000 nM.

Consider `CC(C)(C)OC(=O)Nc1cccc(C(=O)NC2=Nc3ccccc3C3=NCCN23)c1` [Example 2-265], for which the melting point was 280 °C (dec.). For the same compound, the IC50 in data set [1] was greater than 2000 nM.

In turn, `O=C(NC1=Nc2ccccc2C2=NCCN12)c1ccc(-n2cccc2)cc1` [Example 2-266] had a melting point of 218 to 220 °C. The IC50 in data set [1] was greater than 2000 nM.

Consider `O=C(NC1=Nc2ccccc2C2=NCCN12)c1ccc(-n2ccnc2)cc1` [Example 2-268], for which the melting point was 267 °C (dec.). Also, in data set [1], the IC50 was greater than 2000 nM.

`O=C(NC1=Nc2ccccc2C2=NCCN12)c1ccc(-n2cccn2)cc1` [Example 2-270] registered a melting point of 209 to 211 °C. Moreover, in data set [1], the IC50 was greater than 2000 nM.

The compound `COC(=O)c1cccc(C(=O)NC2=Nc3ccccc3C3=NCCN23)c1` [Example 2-272] came in with a melting point of 224 to 226 °C. The IC50 in data set [1] is greater than 2000 nM.

In turn, `COC(=O)c1ccc(C(=O)NC2=Nc3ccccc3C3=NCCN23)cc1` [Example 2-273] registered a melting point of 253 to 255 °C. In addition, the IC50 in data set [1] is greater than 2000 nM.

For `CCOC(=O)c1cc(C(=O)NC2=Nc3ccccc3C3=NCCN23)cc(C(=O)OCC)c1` [Example 2-274], the melting point was 289 °C (dec.). For the same compound, the IC50 in data set [1] is greater than 2000 nM.

`O=C(NC1=Nc2ccccc2C2=NCCN12)c1ccccn1` [Example 2-276] returned a melting point of 204 to 205 °C. Also, the IC50 in data set [1] fell in the range of 500 to 2000 nM.

In turn, `O=C(NC1=Nc2ccccc2C2=NCCN12)c1ccncc1` [Example 2-278] yielded a melting point of 224 to 225 °C. Besides, the IC50 in data set [1] fell in the range of 500 to 2000 nM.

`O=C(NC1=Nc2ccccc2C2=NCCN12)c1ccc(C(F)(F)F)nc1` [Example 2-280] displayed a melting point of 219 to 220 °C. For the same compound, in data set [1], the IC50 was greater than 2000 nM.

For `Cl.O=C(NC1=Nc2ccccc2C2=NCCN12)c1ccc(C(F)(F)F)nc1` [Example 2-281], the melting point was greater than 250 °C. For the same compound, in data set [1], the IC50 was 500 to 2000 nM.

On to `CN(C)c1ccc(C(=O)NC2=Nc3ccccc3C3=NCCN23)cn1` [Example 2-282], for which the melting point was 249 °C (dec.). In data set [1], the IC50 was greater than 2000 nM.

On to `CN(C)c1ccc(C(=O)NC2=Nc3ccccc3C3=NCCN23)cn1.Cl` [Example 2-283], for which the melting point is 311 °C (dec.). Also, the IC50 in data set [1] lay in the range of 500 to 2000 nM.

For the compound `Cl.O=C(NC1=Nc2ccccc2C2=NCCN12)c1cccnc1O` [Example 2-284], the melting point is 346 °C (dec.). Further, the IC50 in data set [1] is greater than 2000 nM.

With `COc1ncccc1C(=O)NC1=Nc2ccccc2C2=NCCN12` [Example 2-285], the melting point fell in the range of 198 to 199 °C. Also, the IC50 in data set [1] lay within 500 to 2000 nM.

`COc1ccc(C(=O)NC2=Nc3ccccc3C3=NCCN23)c(OC)n1` [Example 2-286] displayed a melting point of 244 to 245 °C. Besides, in data set [1], the IC50 is greater than 2000 nM.

For the compound `COc1ccc(C(=O)NC2=Nc3ccccc3C3=NCCN23)c(OC)n1.Cl` [Example 2-287], the melting point is 210 °C (dec.). For the same compound, the IC50 in data set [1] is 500 to 2000 nM.

On to `CSc1ncccc1C(=O)NC1=Nc2ccccc2C2=NCCN12` [Example 2-288], for which the melting point was in the range of 233 to 234 °C. Further, the IC50 in data set [1] was greater than 2000 nM.

For the compound `CSc1ncccc1C(=O)NC1=Nc2ccccc2C2=NCCN12.Cl` [Example 2-289], the melting point fell in the range of 298 to 299 °C. The IC50 in data set [1] lay within 500 to 2000 nM.

Compound `Cc1ccc(C(=O)NC2=Nc3ccccc3C3=NCCN23)c(Cl)n1` [Example 2-290] gave a melting point of 213 to 214 °C. The IC50 in data set [1] was 100 to 500 nM.

For `O=C(NC1=Nc2ccccc2C2=NCCN12)c1ccc(Cl)nc1` [Example 2-291], the melting point is 246 to 247 °C. In data set [1], the IC50 fell in the range of 100 to 500 nM.

Compound `O=C(NC1=Nc2ccccc2C2=NCCN12)c1cnccn1` [Example 2-292] returned a melting point of 267 to 268 °C. Also, the IC50 in data set [1] lay in the range of 500 to 2000 nM.

`Cc1cnc(C(=O)NC2=Nc3ccccc3C3=NCCN23)cn1` [Example 2-294]: the melting point is 257 °C (dec.). The IC50 in data set [1] is 500 to 2000 nM.

Compound `Cn1cccc1C(=O)NC1=Nc2ccccc2C2=NCCN12` [Example 2-296] registered a melting point of 128 to 129 °C. Further, the IC50 in data set [1] is 500 to 2000 nM.

With `O=C(NC1=Nc2ccccc2C2=NCCN12)c1ccco1` [Example 2-298], the melting point was 350 °C (dec.). The IC50 in data set [1] was in the range of 500 to 2000 nM.

On to `Cl.O=C(NC1=Nc2ccccc2C2=NCCN12)c1ccco1` [Example 2-299], for which the melting point was 311 °C (dec.). Also, the IC50 in data set [1] fell in the range of 500 to 2000 nM.

`O=C(NC1=Nc2ccccc2C2=NCCN12)c1ccco1.O=C(O)C(F)(F)F` [Example 2-300]: the melting point lay within 230 to 232 °C. The IC50 in data set [1] was in the range of 100 to 500 nM.

For the compound `O=C(NC1=Nc2ccccc2C2=NCCN12)c1ccc(Cl)s1` [Example 2-301], the melting point is 198 °C (dec.). Also, the IC50 in data set [1] was greater than 2000 nM.

In turn, `Cc1ccc(C(=O)NC2=Nc3ccccc3C3=NCCN23)s1` [Example 2-302] showed a melting point of 192 to 193 °C. In addition, the IC50 in data set [1] fell in the range of 500 to 2000 nM.

As for `O=C(NC1=Nc2ccccc2C2=NCCN12)c1ccc([N+](=O)[O-])s1` [Example 2-303], the melting point was 286 to 287 °C. The IC50 in data set [1] is greater than 2000 nM.

`O=C(NC1=Nc2ccccc2C2=NCCN12)c1csc([N+](=O)[O-])c1` [Example 2-305] returned a melting point of 269 to 270 °C. In addition, the IC50 in data set [1] is greater than 2000 nM.

In the case of `O=C(NC1=Nc2ccccc2C2=NCCN12)c1csnn1` [Example 2-307], the melting point is 219 °C (dec.). Also, the IC50 in data set [1] lay in the range of 500 to 2000 nM.

As to `Cc1nc2cc(C(=O)NC3=Nc4ccccc4C4=NCCN34)ccc2[nH]1.Cl` [Example 2-308], the melting point was 344 °C (dec.). Moreover, in data set [1], the IC50 is 100 to 500 nM.

On to `CC(C)n1c(C(F)(F)F)nc2cc(C(=O)NC3=Nc4ccccc4C4=NCCN34)ccc21` [Example 2-309], for which the melting point is 250 to 253 °C. Moreover, the IC50 in data set [1] was greater than 2000 nM.

Turning to `O=C(NC1=Nc2ccccc2C2=NCCN12)c1ccc2[nH]nnc2c1.O=C(O)C(F)(F)F` [Example 2-310], the melting point was 252 °C (dec.). Moreover, the IC50 in data set [1] is 100 to 500 nM.

For the compound `CC(C)n1nnc2cc(C(=O)NC3=Nc4ccccc4C4=NCCN34)ccc21` [Example 2-311], the melting point fell in the range of 202 to 203 °C. In data set [1], the IC50 is greater than 2000 nM.

On to `O=C(NC1=Nc2ccccc2C2=NCCN12)c1ccc2ncsc2c1` [Example 2-312], for which the melting point fell in the range of 303 to 305 °C. Moreover, the IC50 in data set [1] is greater than 2000 nM.

For `Cl.O=C(NC1=Nc2ccccc2C2=NCCN12)c1ccc2ncsc2c1` [Example 2-313], the melting point is 314 °C (dec.). In data set [1], the IC50 fell in the range of 500 to 2000 nM.

`Cn1c(C(=O)NC2=Nc3ccccc3C3=NCCN23)cc2ccccc21` [Example 2-314] displayed a melting point of 259 to 260 °C. Further, in data set [1], the IC50 is greater than 2000 nM.

Turning to `Cn1cc(C(=O)NC2=Nc3ccccc3C3=NCCN23)c2ccccc21` [Example 2-315], the melting point lay in the range of 288 to 289 °C. Further, the IC50 in data set [1] was greater than 2000 nM.

For the compound `O=C(NC1=Nc2ccccc2C2=NCCN12)c1cnc2ccccc2c1` [Example 2-316], the melting point was in the range of 263 to 264 °C. Further, the IC50 in data set [1] was greater than 2000 nM.

For `Cl.O=C(NC1=Nc2ccccc2C2=NCCN12)c1cnc2ccccc2c1` [Example 2-317], the melting point was 319 °C (dec.). Also, the IC50 in data set [1] lay within 100 to 500 nM.

On to `Cl.O=C(NC1=Nc2ccccc2C2=NCCN12)c1cccc2cccnc12` [Example 2-318], for which the melting point was 316 °C (dec.). In addition, the IC50 in data set [1] is greater than 2000 nM.

As to `O=C(NC1=Nc2ccccc2C2=NCCN12)c1csc(-c2cccnc2)n1` [Example 2-319], the melting point was in the range of 260 to 261 °C. Further, the IC50 in data set [1] is greater than 2000 nM.

`O=C(NC1=Nc2ccccc2C2=NCCN12)c1csc(-c2ccncc2)n1` [Example 2-321]: the melting point was 281 °C (dec.). Also, the IC50 in data set [1] is greater than 2000 nM.

Turning to `COc1ccc(CC(=O)NC2=Nc3ccccc3C3=NCCN23)cc1` [Example 2-323], the melting point was in the range of 167 to 168 °C. For the same compound, in data set [1], the IC50 is greater than 2000 nM.

`O=C(Cc1cccs1)NC1=Nc2ccccc2C2=NCCN12` [Example 2-324] gave a melting point of 122 to 123 °C. Moreover, the IC50 in data set [1] is greater than 2000 nM.

`O=C(COc1ccccc1)NC1=Nc2ccccc2C2=NCCN12` [Example 2-325]: the melting point lay within 149 to 150 °C. The IC50 in data set [1] was greater than 2000 nM.

The compound `CC(=O)NC1=Nc2ccccc2C2=NCCN12` [Example 2-326] displayed a melting point of 189 °C. Moreover, the IC50 in data set [1] was greater than 2000 nM.

On to `CCCC(=O)NC1=Nc2ccccc2C2=NCCN12` [Example 2-328], for which the melting point lay within 121 to 122 °C. The IC50 in data set [1] was greater than 2000 nM.

On to `CC(C)CC(=O)NC1=Nc2ccccc2C2=NCCN12` [Example 2-329], for which the melting point is 154 °C (dec.). In addition, the IC50 in data set [1] is greater than 2000 nM.

Regarding `CC(C)C(=O)NC1=Nc2ccccc2C2=NCCN12` [Example 2-330], the melting point fell in the range of 104 to 105 °C. For the same compound, the IC50 in data set [1] is greater than 2000 nM.
